Tests used:
activated PBMC [1] = assay: Comparison of tyrosine kinase inhibitors on targeted LV transduction of activated PBMC; assay type: cell-based, human; settings: 5 h; for effect of TKI on transduction by targeted LVs: 50 nM dasatinib, 1 μM imatinib or 30 μM genistein
activated PBMC [2] = assay: Binding of CD3-targeted LVs to activated PBMC (anti-His staining); assay type: cell-based, human; settings: 100 nM dasatinib, 7 h and 24 h after start of treatment
Experimental: To understand the mechanism behind the transduction enhancing characteristic of dasatinib, fully activated PBMC were incubated with CD3-targeted LVs, as described above, and analyzed via flow cytometry 7, 24 and 72 h after start of incubation with dasatinib and transduction. Cells were stained with anti-His-PE, allowing the detection of L. Vs bound to the cells.

activated PBMC [3] = assay: Transduction of fully activated PBMC with targeted LVs in presence of dasatinib (GFP expression, flow cytometry); assay type: cell-based, human
Nalm-6 cells = assay type: cell-based, human
CD19+Nalm-6 cells = assay type: cell-based, human; settings: effector:target 0.5:1
[4] = tested on: splenocytes isolated from huNSG mice; assay type: cell-based, humanized NSG mice; settings: CD3-LV(GFP), 50 or 100 nM dasatinib 5 h, three days post transduction
human CD3 receptor = assay type: cell-based; settings: 50 or 100 nM dasat., three days post transduction
human whole blood = assay type: cell-based; settings: 100 nM dasatinib, five to six days
activated PBMC [5] = tested on: activated PBMC
[6] = tested on: freshly isolated PBMC exposed solely to IL-7/15; settings: 100 nM dasatinib, day 4 and 7
[7] = tested on: freshly isolated PBMC exposed solely to IL-7/15; assay type: cell-based, human
CD25 = assay type: cell-based, human
[8] = tested on: CD45+ cells isolated from blood; assay: In vivo transduction in PBMC-humanized NSG mice; settings: 10 mg/kg dasatinib i.p. one hour prior to CD3-LV i.v., seven days, not statistically significant
Experimental: For humanization, 1×10^7 ex vivo activated PBMC were transplanted by intravenous (i.v.) tail-vein injection into 8 week old mice. Humanization levels were measured and used for grouping of the mice by flow cytometry from blood taken eleven days post PBMC injection. The following day, 10 mg/kg dasatinib diluted in vehicle (4% DMSO, 33.3% PEG-300, 5% Tween80, 57.7% ddH20) was intraperitoneally (i.p.) administered to the mice, one hour prior to CD3-LV i.v. injection. The animals were sacrificed seven days post vector administration. Blood, spleen and bone marrow were collected and single cell 35 suspensions were prepared and analyzed by flow cytometry. Additionally, genomic DNA was isolated from the single cell suspension and used for vector copy number (VCN) analysis using quantitative polymerase chain reaction (qPCR).

activated PBMC [9] = assay: Vector titers (transducing units/mL) on activated PBMC; assay type: cell-based, human
Experimental: Transduction was additionally promoted by the transduction enhancer VF-1. Culture medium without dasatinib and Vectofusin-1 was used for control transductions. Transgene expression in T-cells was evaluated 3 and 7 days post transduction by flow cytometry. […] After spinfection, 100 μL of fresh media, either containing the different dasatinib concentrations or without dasatinib, was added and the cells were cultured at 37° C. The medium was changed to fresh TCM with IL-2 or IL-7/15 without dasatinib 3 h, 5 h or 7 h after start of incubation with dasatinib. The cells were further cultured at 37° C., and analyzed for transgene expression 3-4 and 7 days post transduction by flow cytometry. Vector titers were determined in transducing units per milliliter (T U/mL) from LV dilutions showing linear correlation to the number of transgene-positive cells and calculated using following equation.

activated PBMC [10] = assay type: cell-based, human

O=c1c(-c2ccc(O)cc2)coc2cc(O)cc(O)c12 [genistein]
effect of TKI on transduction by targeted LVs (activated PBMC [1]): slight increase

Cc1ccc(NC(=O)c2ccc(CN3CCN(C)CC3)cc2)cc1Nc1nccc(-c2cccnc2)n1 [imatinib, 4-[(4-Methylpiperazin-1-yl)methyl]-N-{4-methyl-3-[(4-pyridin-3˜ ylpyrimidin-2-yl)amino]phenyl}benzamid]
effect of TKI on transduction by targeted LVs (activated PBMC [1]): did not lead to an increase

Cc1nc(Nc2ncc(C(=O)Nc3c(C)cccc3Cl)s2)cc(N2CCN(CCO)CC2)n1 [dasatinib, N-(2-Chloro-6-methylphenyl)-2-[[6-[4-(2-hydroxyethyl)-1-piperazinyl]-2-methyl-4-pyrimidinyl]amino]-5 thiazolecarboxamide]
amount of CD3-LVs bound to the cells (activated PBMC [2]): substantially increased
GFP-expression, TR66-LV in presence of dasatinib (activated PBMC [3]): 30%
T-cells transduced by CD3-LVs in presence of dasatinib (activated PBMC [3]): up to 70%
effect of pretreatment on cell-directed gene transfer using CD3-LVs (activated PBMC [3]): dramatically increases
effect on CD4-LV transduction (activated PBMC [3]): slight increase
effect on transduction by CD8-LV and VSV-LV (activated PBMC [3]): not affected
increase in transduction (maximum in this setup) (activated PBMC [3]): 3 fold
increase in transduction compared to untreated cells (activated PBMC [3]): 1.6 fold
increase in transduction compared with Vectofusin-1 (activated PBMC [3]): even stronger than by the transduction enhancer Vectofusin-1
less transduction after short incubation compared to longer incubation time (activated PBMC [3]): 10-35%
stability of gene transfer (activated PBMC [3]): remained stable
transduction enhancement at lowest concentration (activated PBMC [3]): not sufficient to enhance transduction
transduction for TR66-LV, VF-1 added in presence of dasatinib (activated PBMC [3]): ~70%
overall CAR expression compared to untreated cells (Nalm-6 cells; 50 nM dasatinib during transduction with CD3-LV(CAR)): increased
target cell killing by CAR T cells generated in presence of dasatinib (Nalm-6 cells; 50 nM dasatinib, day 2 up to day 8, 1:1 ratio): complete target cell killing
CAR T cell exhaustion and phenotype markers dependent on dasatinib treatment (Nalm-6 cells; day 8 of the killing assay): no difference
tumor killing (dead target cells) by CAR T cells generated in presence of dasatinib (CD19+Nalm-6 cells; 4 h): around 40%
Nalm-6 cells killed by CD19-CAR T cells (CD19+Nalm-6 cells; 24 h): nearly all
GFP expression of CD45+ splenocytes in presence of dasatinib [4]: around 25%
increase of transgene expression, transduction with CD3-LV (activated PBMC [1]; 50 nM dasatinib or 1 μM bosutinib, GFP three days post transduction): ~4 fold
effect of TKI on transduction by targeted LVs (activated PBMC [1]): strongest increase
MFI of the CD3 receptor in presence of CD3-LV and dasatinib (human CD3 receptor): only slightly reduced
GFP-expression of CD3+ cells, CD3-LV in presence of dasatinib (human whole blood): above 2%
viability in presence of dasatinib compared to untreated cells (activated PBMC [5]; activated PBMC, 100 nM dasatinib, day 3 and 7): not compromised
viability of the cells at high dasatinib concentration (activated PBMC [5]; dasatinib concentrations above 50 nM, 3 days post transduction): dropped slightly
cell viability of non-activated cells [6]: did not negatively affecT-cell viability
TR66-LV mediated gene transfer, VF-1 added to dasatinib-treated cells ([7]; IL-7/15 only PBMC, 100 nM dasatinib plus VF-1): 10%
improvement of CD3-LV transduction of cytokine-only stimulated T-cells ([7]; in presence of dasatinib (summary)): 7 fold
CD25-expression upon activating antibodies or CD3-LVs in presence of dasatinib (CD25): did not cause an increase
GFP-expression and vector integration in genomic DNA of blood cells in vivo [8]: clear tendency
increase of titers of CD3-LV(CAR) in presence of dasatinib (activated PBMC [9]; CD19 CAR, three days post transduction): 3-16 fold
titers of CD3-LV(GFP) in presence of dasatinib (activated PBMC [9]; with dasatinib): 1e7-1e8 T.U./mL
CAR transduction in presence of VF-1 with dasatinib (activated PBMC [10]): 13%
CAR-expression, CD3-LV transduced cells, dasatinib present (activated PBMC [10]): up to 10%

From US20240207402A1, “MEANS AND METHODS FOR ENHANCING RECEPTOR-TARGETED GENE TRANSFER” (Deutsches Krebsforschungszentrum Stiftung des öffentlichen …, priority 2021, published 2024)
